Source: ChEMBL document CHEMBL3046001, “4-Thiazolidinone and 1-thia-3,4,9-triaza fluorene conjugates: synthesis, characterization and antimicrobial screening” (2013)
Converted amounts (≈) assume the structure as drawn. The source made the active and inactive calls. The rule behind the calls is not given here.

How the values were obtained:
[1] = test system: Staphylococcus aureus; test: Antibacterial activity against Staphylococcus aureus MTCC 1430 assessed as growth inhibition at 250 ug/mL after 48 hr by agar diffusion method; type: functional; settings: MTCC 1430, 48 h, read-out: DIZ
[2] = test system: Micrococcus luteus; test: Antibacterial activity against Micrococcus luteus MTCC 1538 assessed as growth inhibition at 750 ug/mL after 48 hr by agar diffusion method; type: functional; settings: MTCC 1538, 48 h, read-out: DIZ
[3] = test system: Staphylococcus aureus; test: Antibacterial activity against Staphylococcus aureus MTCC 1430 assessed as growth inhibition at 1250 ug/mL after 48 hr by agar diffusion method; type: functional; settings: MTCC 1430, 48 h, read-out: DIZ
[4] = test system: Micrococcus luteus; test: Antibacterial activity against Micrococcus luteus MTCC 1538 assessed as growth inhibition at 1000 ug/mL after 48 hr by agar diffusion method; type: functional; settings: MTCC 1538, 48 h, read-out: DIZ
[5] = test system: Micrococcus luteus; test: Antibacterial activity against Micrococcus luteus MTCC 1538 assessed as growth inhibition after 24 hr by tube dilution method; type: functional; settings: MTCC 1538, 24 h
[6] = test system: Bacillus subtilis; test: Antibacterial activity against Bacillus subtilis MTCC 441 assessed as growth inhibition at 500 ug/mL after 48 hr by agar diffusion method; type: functional; settings: MTCC 441, 48 h, read-out: DIZ
[7] = test system: Bacillus subtilis; test: Antibacterial activity against Bacillus subtilis MTCC 441 assessed as growth inhibition at 750 ug/mL after 48 hr by agar diffusion method; type: functional; settings: MTCC 441, 48 h, read-out: DIZ
[8] = test system: Pseudomonas fluorescens; test: Antibacterial activity against Pseudomonas fluorescens MTCC 2421 assessed as growth inhibition at 250 ug/mL after 48 hr by agar diffusion method; type: functional; settings: MTCC 2421, 48 h, read-out: DIZ
[9] = test system: Bacillus subtilis; test: Antibacterial activity against Bacillus subtilis MTCC 441 assessed as growth inhibition at 1000 ug/mL after 48 hr by agar diffusion method; type: functional; settings: MTCC 441, 48 h, read-out: DIZ
[10] = test system: Penicillium chrysogenum; test: Antifungal activity against Penicillium chrysogenum MTCC 161 assessed as growth inhibition at 250 ug/mL after 48 hr by agar diffusion method; type: functional
[11] = test system: Aspergillus niger; test: Antifungal activity against Aspergillus niger MTCC 2546 assessed as growth inhibition at 100 ug/mL after 48 hr by agar diffusion method; type: functional, organism-based
[12] = test system: Bacillus pumilus; test: Antibacterial activity against Bacillus pumilus MTCC 1456 assessed as growth inhibition at 100 ug/mL after 48 hr by agar diffusion method; type: functional; settings: MTCC 1456, 48 h, read-out: DIZ
[13] = test system: Staphylococcus aureus; test: Antibacterial activity against Staphylococcus aureus MTCC 1430 assessed as growth inhibition at 1000 ug/mL after 48 hr by agar diffusion method; type: functional; settings: MTCC 1430, 48 h, read-out: DIZ
[14] = test system: Penicillium chrysogenum; test: Antifungal activity against Penicillium chrysogenum MTCC 161 assessed as growth inhibition at 1000 ug/mL after 48 hr by agar diffusion method; type: functional; settings: MTCC 161, 48 h, read-out: DIZ
[15] = test system: Pseudomonas aeruginosa; test: Antibacterial activity against Pseudomonas aeruginosa MTCC 424 assessed as growth inhibition at 750 ug/mL after 48 hr by agar diffusion method; type: functional; settings: MTCC 424, 48 h, read-out: DIZ
[16] = test system: Pseudomonas fluorescens; test: Antibacterial activity against Pseudomonas fluorescens MTCC 2421 assessed as growth inhibition at 750 ug/mL after 48 hr by agar diffusion method; type: functional; settings: MTCC 2421, 48 h, read-out: DIZ
[17] = test system: Aspergillus niger; test: Antifungal activity against Aspergillus niger MTCC 2546 assessed as growth inhibition at 1250 ug/mL after 48 hr by agar diffusion method; type: functional; settings: MTCC 2546, 48 h, read-out: DIZ
[18] = test system: Pseudomonas fluorescens; test: Antibacterial activity against Pseudomonas fluorescens MTCC 2421 assessed as growth inhibition at 100 ug/mL after 48 hr by agar diffusion method; type: functional
[19] = test system: Aspergillus niger; test: Antifungal activity against Aspergillus niger MTCC 2546 assessed as growth inhibition at 500 ug/mL after 48 hr by agar diffusion method; type: functional; settings: MTCC 2546, 48 h, read-out: DIZ
[20] = test system: Bacillus pumilus; test: Antibacterial activity against Bacillus pumilus MTCC 1456 assessed as growth inhibition at 250 ug/mL after 48 hr by agar diffusion method; type: functional; settings: MTCC 1456, 48 h, read-out: DIZ
[21] = test system: Pseudomonas aeruginosa; test: Antibacterial activity against Pseudomonas aeruginosa MTCC 424 assessed as growth inhibition at 100 ug/mL after 48 hr by agar diffusion method; type: functional; settings: MTCC 424, 48 h, read-out: DIZ
[22] = test system: Bacillus subtilis; test: Antibacterial activity against Bacillus subtilis MTCC 441 assessed as growth inhibition at 250 ug/mL after 48 hr by agar diffusion method; type: functional; settings: MTCC 441, 48 h, read-out: DIZ
[23] = test system: Pseudomonas fluorescens; test: Antibacterial activity against Pseudomonas fluorescens MTCC 2421 assessed as growth inhibition at 500 ug/mL after 48 hr by agar diffusion method; type: functional; settings: MTCC 2421, 48 h, read-out: DIZ
[24] = test system: Penicillium chrysogenum; test: Antifungal activity against Penicillium chrysogenum MTCC 161 assessed as growth inhibition at 500 ug/mL after 48 hr by agar diffusion method; type: functional; settings: MTCC 161, 48 h, read-out: DIZ
[25] = test system: Aspergillus niger; test: Antifungal activity against Aspergillus niger MTCC 2546 assessed as growth inhibition after 24 hr by tube dilution method; type: functional; settings: MTCC 2546, 24 h
[26] = test system: Escherichia coli; test: Antibacterial activity against Escherichia coli MTCC 1573 assessed as growth inhibition at 750 ug/mL after 48 hr by agar diffusion method; type: functional; settings: MTCC 1573, 48 h, read-out: DIZ
[27] = test system: Aspergillus niger; test: Antifungal activity against Aspergillus niger MTCC 2546 assessed as growth inhibition at 750 ug/mL after 48 hr by agar diffusion method; type: functional; settings: MTCC 2546, 48 h, read-out: DIZ
[28] = test system: Bacillus pumilus; test: Antibacterial activity against Bacillus pumilus MTCC 1456 assessed as growth inhibition at 1000 ug/mL after 48 hr by agar diffusion method; type: functional; settings: MTCC 1456, 48 h, read-out: DIZ
[29] = test system: Pseudomonas fluorescens; test: Antibacterial activity against Pseudomonas fluorescens MTCC 2421 assessed as growth inhibition after 24 hr by tube dilution method; type: functional; settings: MTCC 2421, 24 h
[30] = test system: Pseudomonas aeruginosa; test: Antibacterial activity against Pseudomonas aeruginosa MTCC 424 assessed as growth inhibition at 1250 ug/mL after 48 hr by agar diffusion method; type: functional; settings: MTCC 424, 48 h, read-out: DIZ
[31] = test system: Pseudomonas aeruginosa; test: Antibacterial activity against Pseudomonas aeruginosa MTCC 424 assessed as growth inhibition at 250 ug/mL after 48 hr by agar diffusion method; type: functional; settings: MTCC 424, 48 h, read-out: DIZ
[32] = test system: Pseudomonas aeruginosa; test: Antibacterial activity against Pseudomonas aeruginosa MTCC 424 assessed as growth inhibition at 500 ug/mL after 48 hr by agar diffusion method; type: functional; settings: MTCC 424, 48 h, read-out: DIZ
[33] = test system: Staphylococcus aureus; test: Antibacterial activity against Staphylococcus aureus MTCC 1430 assessed as growth inhibition after 24 hr by tube dilution method; type: functional; settings: MTCC 1430, 24 h
[34] = test system: Escherichia coli; test: Antibacterial activity against Escherichia coli MTCC 1573 assessed as growth inhibition at 1000 ug/mL after 48 hr by agar diffusion method; type: functional; settings: MTCC 1573, 48 h, read-out: DIZ
[35] = test system: Escherichia coli; test: Antibacterial activity against Escherichia coli MTCC 1573 assessed as growth inhibition after 24 hr by tube dilution method; type: functional; settings: MTCC 1573, 24 h
[36] = test system: Escherichia coli; test: Antibacterial activity against Escherichia coli MTCC 1573 assessed as growth inhibition at 500 ug/mL after 48 hr by agar diffusion method; type: functional; settings: MTCC 1573, 48 h, read-out: DIZ
[37] = test system: Staphylococcus aureus; test: Antibacterial activity against Staphylococcus aureus MTCC 1430 assessed as growth inhibition at 100 ug/mL after 48 hr by agar diffusion method; type: functional, organism-based
[38] = test system: Bacillus subtilis; test: Antibacterial activity against Bacillus subtilis MTCC 441 assessed as growth inhibition after 24 hr by tube dilution method; type: functional; settings: MTCC 441, 24 h
[39] = test system: Staphylococcus aureus; test: Antibacterial activity against Staphylococcus aureus MTCC 1430 assessed as growth inhibition at 500 ug/mL after 48 hr by agar diffusion method; type: functional; settings: MTCC 1430, 48 h, read-out: DIZ

Structure (SMILES) | zone of inhibition at 250 µg/mL [1] | zone of inhibition at 750 µg/mL [2] | zone of inhibition at 1250 µg/mL [3] | zone of inhibition at 1000 µg/mL [4] | MIC [5] | zone of inhibition at 500 µg/mL [6] | zone of inhibition at 750 µg/mL [7] | zone of inhibition at 250 µg/mL [8] | zone of inhibition at 1000 µg/mL [9] | growth inhibition (GI) [11] | zone of inhibition at 100 µg/mL [12] | zone of inhibition at 1000 µg/mL [13] | zone of inhibition at 1000 µg/mL [14] | zone of inhibition at 750 µg/mL [15] | zone of inhibition at 750 µg/mL [16] | zone of inhibition at 1250 µg/mL [17] | zone of inhibition at 500 µg/mL [19] | zone of inhibition at 250 µg/mL [20] | zone of inhibition at 100 µg/mL [21] | zone of inhibition at 250 µg/mL [22] | other results
CC1SCC(=O)N1c1nnc2c3cc(Cl)ccc3nc-2s1 (stereo not drawn) | 8 mm | 14 mm | 19 mm | 17 mm | 150 µg/mL (≈ 445 µM) | 15 mm | 17 mm | 7 mm | 19 mm | inactive | 8 mm | 15 mm | 18 mm | 17 mm | 12 mm | 17 mm | 10 mm | 10 mm | 7 mm | 10 mm | growth inhibition (GI) [10]: inactive; growth inhibition (GI) [18]: inactive; zone of inhibition at 500 µg/mL [23]: 8 mm; zone of inhibition at 500 µg/mL [24]: 12 mm; MIC [25]: 250 µg/mL (≈ 742 µM); zone of inhibition at 750 µg/mL [26]: 17 mm; zone of inhibition at 750 µg/mL [27]: 13 mm; zone of inhibition at 1000 µg/mL [28]: 15 mm; MIC [29]: 150 µg/mL (≈ 445 µM); zone of inhibition at 1250 µg/mL [30]: 20 mm; zone of inhibition at 250 µg/mL [31]: 9 mm; zone of inhibition at 500 µg/mL [32]: 14 mm; MIC [33]: 150 µg/mL (≈ 445 µM); zone of inhibition at 1000 µg/mL [34]: 19 mm; MIC [35]: 30 µg/mL (≈ 89.1 µM); zone of inhibition at 500 µg/mL [36]: 14 mm; growth inhibition (GI) [37]: inactive; MIC [38]: 50 µg/mL (≈ 148 µM); zone of inhibition at 500 µg/mL [39]: 10 mm
O=C1CSC(c2ccccn2)N1c1nnc2c3cc(Cl)ccc3nc-2s1 (stereo not drawn) | 7 mm | 12 mm | 17 mm | 15 mm | 250 µg/mL (≈ 625 µM) | 9 mm | 14 mm | 8 mm | 19 mm | inactive | 10 mm | 13 mm | 18 mm | 15 mm | 15 mm | 20 mm | 12 mm | 13 mm | 7 mm | 7 mm | zone of inhibition at 250 µg/mL ([10]; MTCC 161, 48 h, read-out: DIZ): 9 mm; zone of inhibition at 100 µg/mL ([18]; MTCC 2421, 48 h, read-out: DIZ): 7 mm; zone of inhibition at 500 µg/mL [23]: 11 mm; zone of inhibition at 500 µg/mL [24]: 12 mm; MIC [25]: 200 µg/mL (≈ 500 µM); zone of inhibition at 750 µg/mL [26]: 15 mm; zone of inhibition at 750 µg/mL [27]: 15 mm; zone of inhibition at 1000 µg/mL [28]: 20 mm; MIC [29]: 50 µg/mL (≈ 125 µM); zone of inhibition at 1250 µg/mL [30]: 20 mm; zone of inhibition at 250 µg/mL [31]: 10 mm; zone of inhibition at 500 µg/mL [32]: 13 mm; MIC [33]: 250 µg/mL (≈ 625 µM); zone of inhibition at 1000 µg/mL [34]: 20 mm; MIC [35]: 150 µg/mL (≈ 375 µM); zone of inhibition at 500 µg/mL [36]: 12 mm; growth inhibition (GI) [37]: inactive; MIC [38]: 150 µg/mL (≈ 375 µM); zone of inhibition at 500 µg/mL [39]: 9 mm
